# Patent US9284252B2, “Use of jasmonate ester derivatives for treating benign hyperproliferative skin disorders” (SEPAL PHARMA LTD., priority 2009, dated 2016)
# Tests used:
# [1] = test system: reconstituted three-dimensional human epidermis model (EPISKIN-Standard Model); test: Skin irritation assay, reconstituted human epidermis model EPISKIN-SM; conditions: 15 minutes application, 42 hours post-incubation
# Experimental: (§1) In order to test the toxicity of jasmonate ester derivatives in human skin, skin irritation assay using a reconstituted three-dimensional human epidermis model (EPISKIN-Standard Model™; conducted at BSL-Bioservices, Planegg, Germany) was performed.
# (§2) Irritant potential of the compound was assessed from the relative mean tissue viabilities obtained compared to the corresponding negative control tissues concurrently treated with Aqua Dest (distilled water). The release of Interleukin-1α (IL-1α) into the tissue culture medium was determined to confirm the obtained results.
# [2] = test system: reconstituted three-dimensional human epidermis model (EpiDerm skin model); test: Skin corrosion assay, EpiDerm skin model; type: cell-based
# Experimental: In particular, MJ was applied topically to the EpiDerm™ tissue and incubated for 3 and 60 minutes at each time. After the incubation period, tissue viability was assessed via MTT reduction assay.
# [3] = test system: UVB-damaged skin in SKH-1 mice; test: Skin lesion formation induced by UVB, damaged skin mouse model of actinic keratosis; type: in vivo
# From the text: The efficacy of Compound C was further evaluated in an animal model of Actinic Keratosis (AK). The purpose of the study was to determine the effect of compound C against lesion formation in UVB-damaged skin in SKH-1 mice, a mouse model of AK and non-melanoma skin cancers.
# The study was divided to two parts: pre-study that included UVB irradiation to induce the damage to the skin, and efficacy study that included the treatment with Compound C compared to standard treatment and efficacy evaluation. After 16 weeks of UVB irradiation, 60% of the animals developed lesions, and treatment was started on week 17 and continued for 7.5 weeks. The total duration of the study was 23.5 weeks.
# The study included female mice, 6-8 weeks of age at study initiation. After 16 weeks of UVB irradiation, when 60% (36/60) of the animals developed at least 1 lesion, mice were randomly stratified into 12 mice per group (see Table 4) according to score and number of lesions. Picato gel (Ingenol mebutate, Leo Pharma Inc.) was used as the positive control.
# For UVB irradiation, Vilber-Lourmat (France) Lamp VL-6.M was used, irradiating at 312 nm with an intensity of 0.89 mW/cm^2 at a distance of 15 cm. Determination of UVB irradiation Minimal Erythemal Dose (MED) was performed prior to the beginning of the study (during the pre-study period). Animals were UVB irradiated during different time periods (starting at 30 sec) and the presence of erythema was recorded 24 and 48 hours later.
# Observations for clinical scoring and signs of erythema and edema, were performed twice a week. Erythema and edema scoring were performed according to the grading levels described in Table 5 below. Lesion numbers were determined once a week during Weeks 4-6 and twice a week during Weeks 7-16 until treatment started. During treatment, lesion number and erythema-edema scores were performed twice a week.
# [4] = test system: actinic keratosis (AK) cell line HT297.T; test: XTT proliferation assay in actinic keratosis cell line; type: cell-based; conditions: 72 h, 3 days treatment, HT297.T cells
# Experimental: IC50 values were calculated from the mean of triplicate wells for each experiment. […]
# [5] = test system: malignant keratinocytes A431 cell line; conditions: cited from earlier work
# [6] = test system: cervical cancer cell lines; conditions: range of cervical cancer cell lines; cited from earlier work
# [7] = test system: metastatic melanoma cells; conditions: cited from earlier work
# [8] = test system: reconstituted three-dimensional human epidermis model (EPISKIN-Standard Model)
# Experimental: as §1, §2
# [9] = test system: lymphomas in mice; conditions: cited from earlier work
# [10] = type: in vitro ADME; conditions: human
# Experimental: These studies were conducted by BSL-Bioservices (Planegg, Germany) and the samples were analyzed by ATC (Liege, Belgium).
structure (smiles),measurement,setting,value
CCCCCCCCCCCCOS(=O)(=O)[O-].[Na+] [5% SDS solution],Mean relative tissue viability (%) (MTT reduction),[1],3.3 ± 0.6%
same,IL-1α release,[1]; tissue culture medium,236.7 ± 23.0 pg/mL
[K+].[OH-] [8N KOH],Mean relative tissue viability (%) (MTT reduction) after 3 minutes,[2]; 3 minutes treatment,26 ± 5.3%
same,Mean relative tissue viability (%) (MTT reduction) after 60 minutes,[2]; 60 minutes treatment,14 ± 3.7%
CC/C=C\CC1C(=O)CCC1CC(=O)Oc1cccc2cccnc12 (stereo not shown) [Compound C],maximal reduction in lesion number on Day 50,"[3]; Compound C 2.5% topical, group 3F",65%
same,maximal reduction in lesion number on Day 50,"[3]; Compound C 40% topical, group 5F",72%
same,maximal reduction in lesion number on Day 50,[3]; group 4F (5% topical per Table 4),70%
same,histopathology evaluation of skin,[3]; groups treated with compound C,look similar to naïve (healthy) animals
same,gross pathology examination,"[3]; mouse, in vivo",No abnormality was detected
same,skin erythema or edema following topical treatment,"[3]; mouse, in vivo",no skin erythema or edema
same,reduction in total area of lesions and total tumor area,"[3]; topical, concentration not given",70%
same,IC50,[4],0.25 µM
CC/C=C\C[C@H]1C(=O)CC[C@@H]1CC(=O)O [jasmonic acid],toxicity on A431 cell line,[5],low toxicity
"CC/C=C\CC1C(=O)CCC1CC(=O)OC (stereo not shown) [MJ, methyl jasmonate]",cytotoxicity,[6],cytotoxic
same,cell motility,[7],suppresses cell motility
same,development of lung metastases,[7],inhibits the development of lung metastases
same,irritation classification according to ECVAM SIVS recommendations,[8],non-irritant
same,prevention of development of lymphomas,[9],effective
same,toxicity on A431 cell line,[5],low toxicity
same,corrosion classification according to OECD Guideline and EC Commission Regulation,[2],non-corrosive
same,IC50,[4],21.1 µM
same,local intra-skin concentrations,[10],~1 M
